Assay [1] deals with ErbB2 insYVMA (HER2-YVMA, SEQ ID NO: 2) (Homo sapiens, UniProt P04626, INS775YVMA/P1170A). Description: biochemical. The conditions noted are these: ErbB2 insYVMA enzyme assay.
Assay [2] concerns the target ErbB2 WT (Homo sapiens (Human), UniProt P04626). The assay is described as follows: ErbB enzyme assay (CisBio HTRF KinEASE-TK), Assay 2. Type of assay: biochemical. Put shortly: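 Readout is HTRF KinEASE-TK, using Sa-XL665 and cryptate antibody for 1 h at 22 °C, as percent of control between DMSO-only (100) and pre-quenched (0) reactions. The kinase reaction runs 30 min at 22 °C with 1 mM ATP and 250 nM biotinylated TK substrate, in HEPES pH 7.4 with MgCl2 and 2% DMSO.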

For assay [3], the target named is EGFR (Homo sapiens (Human), UniProt P00533). The assay is described as follows: ErbB enzyme assay (CisBio HTRF KinEASE-TK), Assay 3. The assay is classed as biochemical. Put shortly:
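First, enzyme was reacted with compound, 1 mM ATP and 250 nM biotinylated tyrosine-kinase peptide for 30 min at 22 °C at pH 7.4. Next, streptavidin-XL665 and cryptate antibody were added for 1 h. Finally, HTRF ratios were converted to POC and fitted to yield IC50.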

The target in assay [4] is ErbB2 with Exon 20 YVMA insertion (HER2-YVMA) (Homo sapiens (Human), UniProt P04626, INS775YVMA). The assay is described as follows: Cellular phosphorylation assay, constitutive ErbB2 phosphorylation (Y1196) in engineered NIH 3T3 cells, Assay 4. Type of assay: cell-based. Put shortly: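 In-cell Western in NIH 3T3 cells carrying ErbB2 exon 20 YVMA insertion, with no ligand stimulation. One hour compound exposure at 37 °C before fixation and anti-pY1196 plus GAPDH staining with dual-wavelength fluorescence. IC50 derived after GAPDH normalization.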

Assay [5] deals with EGFR wild type (EGFR WT) (Homo sapiens (Human), UniProt P00533). Description: Cellular phosphorylation assay, EGF-stimulated EGFR phosphorylation in engineered NIH 3T3 cells, Phospho-EGFR DuoSet IC ELISA, Assay 5. The assay is classed as cell-based. In short, it runs like this:
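Phospho-EGFR ELISA on lysates of engineered NIH 3T3 EGFR WT cells, IC50 derived from concentration curves. Cells plated at 20,000/well overnight, given compound dilutions 1 h at 37 °C, then rEGF 100 ng/ml for a further 10 min before lysis.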

Each structure is given as a SMILES string. Where a name gives a salt, the structure may show the parent alone. Read-outs that look alike come from different tables or passages of the source. Bounds are passed on as bounds.

The values that follow come from patent publication US11834453B2, “Substituted pyrimido[5,4-d]pyrimidines as HER2 inhibitors” (Array BioPharma Inc., priority 2020, dated 2023).

Chain of ErbB2 insYVMA (HER2-YVMA, SEQ ID NO: 2) (P04626 with tags, fused parts or gaps INS775YVMA/P1170A limits assumed): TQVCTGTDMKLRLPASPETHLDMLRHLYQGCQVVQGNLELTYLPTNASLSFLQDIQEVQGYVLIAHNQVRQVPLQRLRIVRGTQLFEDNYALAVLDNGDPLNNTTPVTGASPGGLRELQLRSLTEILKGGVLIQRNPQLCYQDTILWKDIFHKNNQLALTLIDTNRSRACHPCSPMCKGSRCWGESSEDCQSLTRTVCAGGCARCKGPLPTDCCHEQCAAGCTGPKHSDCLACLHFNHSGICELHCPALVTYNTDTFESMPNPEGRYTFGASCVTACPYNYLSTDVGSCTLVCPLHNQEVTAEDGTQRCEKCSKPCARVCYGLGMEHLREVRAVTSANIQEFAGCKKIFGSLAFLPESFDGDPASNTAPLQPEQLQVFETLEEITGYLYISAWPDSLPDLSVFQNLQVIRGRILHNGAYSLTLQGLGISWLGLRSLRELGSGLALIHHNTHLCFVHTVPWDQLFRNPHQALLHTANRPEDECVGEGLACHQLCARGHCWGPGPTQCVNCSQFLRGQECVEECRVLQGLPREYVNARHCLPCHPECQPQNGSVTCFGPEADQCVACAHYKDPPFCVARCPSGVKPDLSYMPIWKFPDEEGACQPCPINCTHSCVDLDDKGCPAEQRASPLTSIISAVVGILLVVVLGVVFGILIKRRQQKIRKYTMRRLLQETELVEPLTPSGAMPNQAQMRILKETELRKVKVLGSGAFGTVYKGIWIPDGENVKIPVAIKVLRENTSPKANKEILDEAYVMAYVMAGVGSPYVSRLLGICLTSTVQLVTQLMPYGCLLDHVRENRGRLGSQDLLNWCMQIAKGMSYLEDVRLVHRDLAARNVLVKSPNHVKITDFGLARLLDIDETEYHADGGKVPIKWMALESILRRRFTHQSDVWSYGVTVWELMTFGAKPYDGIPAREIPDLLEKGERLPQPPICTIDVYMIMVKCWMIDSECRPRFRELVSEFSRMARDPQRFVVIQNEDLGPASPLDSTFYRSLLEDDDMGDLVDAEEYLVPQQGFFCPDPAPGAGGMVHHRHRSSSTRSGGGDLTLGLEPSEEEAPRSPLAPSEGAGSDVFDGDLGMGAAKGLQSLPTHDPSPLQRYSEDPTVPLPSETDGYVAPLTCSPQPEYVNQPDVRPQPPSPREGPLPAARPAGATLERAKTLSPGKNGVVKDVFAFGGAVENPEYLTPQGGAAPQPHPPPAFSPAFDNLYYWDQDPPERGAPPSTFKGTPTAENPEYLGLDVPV
Chain of EGFR wild type (EGFR WT) (P00533 25-1210): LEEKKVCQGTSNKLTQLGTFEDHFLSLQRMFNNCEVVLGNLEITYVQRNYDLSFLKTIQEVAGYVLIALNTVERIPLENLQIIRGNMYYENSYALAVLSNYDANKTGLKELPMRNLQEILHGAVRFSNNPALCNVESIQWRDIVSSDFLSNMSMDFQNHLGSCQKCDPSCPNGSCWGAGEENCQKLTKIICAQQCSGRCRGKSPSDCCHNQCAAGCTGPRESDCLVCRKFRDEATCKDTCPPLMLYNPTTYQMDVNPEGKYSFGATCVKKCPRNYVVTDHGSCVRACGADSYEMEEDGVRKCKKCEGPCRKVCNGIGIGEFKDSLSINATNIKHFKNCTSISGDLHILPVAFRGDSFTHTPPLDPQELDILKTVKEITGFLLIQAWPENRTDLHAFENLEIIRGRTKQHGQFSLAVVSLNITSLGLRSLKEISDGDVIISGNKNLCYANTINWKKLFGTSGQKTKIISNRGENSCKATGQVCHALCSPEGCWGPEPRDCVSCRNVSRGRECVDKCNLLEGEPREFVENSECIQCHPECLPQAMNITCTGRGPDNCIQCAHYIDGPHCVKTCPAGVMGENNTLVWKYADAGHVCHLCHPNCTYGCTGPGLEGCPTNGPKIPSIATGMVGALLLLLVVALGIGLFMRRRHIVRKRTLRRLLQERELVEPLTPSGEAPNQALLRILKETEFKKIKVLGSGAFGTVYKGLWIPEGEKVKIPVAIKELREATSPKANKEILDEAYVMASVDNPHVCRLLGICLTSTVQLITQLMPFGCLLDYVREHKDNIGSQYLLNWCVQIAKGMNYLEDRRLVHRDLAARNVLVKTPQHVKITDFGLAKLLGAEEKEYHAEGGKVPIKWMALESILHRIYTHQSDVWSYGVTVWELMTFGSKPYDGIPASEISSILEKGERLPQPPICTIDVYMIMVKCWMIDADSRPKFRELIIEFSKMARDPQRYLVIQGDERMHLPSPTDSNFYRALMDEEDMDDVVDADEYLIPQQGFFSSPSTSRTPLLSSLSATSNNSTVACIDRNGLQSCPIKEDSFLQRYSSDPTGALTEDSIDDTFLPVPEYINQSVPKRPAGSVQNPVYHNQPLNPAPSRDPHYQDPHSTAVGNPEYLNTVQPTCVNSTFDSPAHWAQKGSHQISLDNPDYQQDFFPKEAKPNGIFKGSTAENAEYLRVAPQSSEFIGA
Chain of EGFR (P00533 25-1210): as above
Chain of ErbB2 WT (P04626 23-1255): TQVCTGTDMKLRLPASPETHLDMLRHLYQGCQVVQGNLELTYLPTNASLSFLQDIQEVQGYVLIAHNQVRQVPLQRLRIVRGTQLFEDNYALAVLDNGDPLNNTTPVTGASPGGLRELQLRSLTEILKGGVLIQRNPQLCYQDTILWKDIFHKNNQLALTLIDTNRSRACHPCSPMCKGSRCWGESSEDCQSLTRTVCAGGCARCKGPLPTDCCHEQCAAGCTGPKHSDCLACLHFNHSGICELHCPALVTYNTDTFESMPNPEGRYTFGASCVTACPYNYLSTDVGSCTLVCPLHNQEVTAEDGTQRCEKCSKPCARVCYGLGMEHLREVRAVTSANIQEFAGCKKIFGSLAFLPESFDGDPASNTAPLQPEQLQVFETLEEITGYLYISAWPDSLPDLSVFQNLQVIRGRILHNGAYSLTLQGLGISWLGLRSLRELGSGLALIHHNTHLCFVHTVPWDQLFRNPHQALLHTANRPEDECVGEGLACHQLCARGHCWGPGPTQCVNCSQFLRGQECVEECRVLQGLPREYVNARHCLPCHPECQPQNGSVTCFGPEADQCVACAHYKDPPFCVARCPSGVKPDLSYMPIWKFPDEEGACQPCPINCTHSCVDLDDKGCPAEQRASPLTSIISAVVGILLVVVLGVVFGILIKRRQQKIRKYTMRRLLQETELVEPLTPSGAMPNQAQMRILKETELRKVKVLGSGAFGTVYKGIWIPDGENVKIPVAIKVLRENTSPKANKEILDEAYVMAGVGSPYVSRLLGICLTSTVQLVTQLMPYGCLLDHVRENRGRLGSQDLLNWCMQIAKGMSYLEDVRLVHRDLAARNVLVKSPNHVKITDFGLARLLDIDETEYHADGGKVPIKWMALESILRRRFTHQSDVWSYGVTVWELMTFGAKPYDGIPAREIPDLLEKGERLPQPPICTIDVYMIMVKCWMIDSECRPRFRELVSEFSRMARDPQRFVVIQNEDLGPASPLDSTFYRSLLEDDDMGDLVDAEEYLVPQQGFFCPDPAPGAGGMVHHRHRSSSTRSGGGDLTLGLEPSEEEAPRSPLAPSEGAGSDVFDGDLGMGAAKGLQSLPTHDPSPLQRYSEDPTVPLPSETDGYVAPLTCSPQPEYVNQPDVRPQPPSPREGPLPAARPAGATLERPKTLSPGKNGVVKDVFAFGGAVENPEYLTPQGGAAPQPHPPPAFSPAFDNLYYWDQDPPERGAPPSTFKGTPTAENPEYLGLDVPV

As for `Cc1cc(Nc2ncnc3cnc(N4CCCC4=O)nc23)ccc1Oc1ccn2ncnc2c1` [Example 137, 1-(8-((4-([1,2,4]triazolo[1,5-a]pyridin-7-yloxy)-3-methylphenyl)amino)pyrimido[5,4-d]pyrimidin-2-yl)pyrrolidin-2-one], the concentration for half-maximal inhibition (IC50) in assay [1] (read-out: Assay 1 IC50) was 97.7 nM; in assay [2], 166 nM; in assay [3], not below 10 µM; in assay [4], 1080 nM; in assay [5] it was not below 5 µM.
In the same order, the values of `Cc1cc(Nc2ncnc3cnc(N=S4(=O)CCOCC4)nc23)ccc1Oc1ccc2c(c1)ncn2C` [Example 138, 4-((8-((3-methyl-4-((1-methyl-1H-benzo[d]imidazol-5-yl)oxy)phenyl)amino)pyrimido[5,4-d]pyrimidin-2-yl)imino)-1,4λ^6-oxathiane 4-oxide] are 32.2 nM, 33.6 nM, 4.91 µM, 58.2 nM and not below 5 µM.
In the case of `Cc1cc(Nc2ncnc3cnc(N4CCCS4(=O)=O)nc23)ccc1Oc1ccc2c(c1)ncn2C` [Example 139, 2-(8-((3-methyl-4-((1-methyl-1H-benzo[d]imidazol-5-yl)oxy)phenyl)amino)pyrimido[5,4-d]pyrimidin-2-yl)isothiazolidine 1,1-dioxide], the half-maximal inhibitory concentration (IC50) in assay [1] (read-out: Assay 1 IC50) was 9.6 nM; in assay [2], 12.6 nM; in assay [3], 1.57 µM; in assay [4], 6.3 nM; in assay [5] it was not below 5 µM.
Regarding `Cc1cc(Nc2ncnc3cnc(N4CC(C)CS4(=O)=O)nc23)ccc1Oc1ccc2c(c1)ncn2C` (stereo not drawn) [Example 140, 4-methyl-2-(8-((3-methyl-4-((1-methyl-1H-benzo[d]imidazol-5-yl)oxy)phenyl)amino)pyrimido[5,4-d]pyrimidin-2-yl)isothiazolidine 1,1-dioxide], the IC50 was 21.3 nM in assay [1] (read-out: Assay 1 IC50); 20.3 nM in assay [2]; 6.36 µM in assay [3]; 8.1 nM in assay [4]; not below 5 µM in assay [5].
For `CON1CCN(c2ncc3ncnc(Nc4ccc(Oc5ccc6c(c5)ncn6C)c(C)c4F)c3n2)CC1` [Example 142, N-(2-fluoro-3-methyl-4-((1-methyl-1H-benzo[d]imidazol-5-yl)oxy)phenyl)-6-(4-methoxypiperazin-1-yl)pyrimido[5,4-d]pyrimidin-4-amine 2,2,2-trifluoroacetate], the IC50 is 24.2 nM in assay [1] (Assay 1 IC50 (nM)); 50.7 nM in assay [2]; not below 10 µM in assay [3]; 72.7 nM in assay [4]; not below 5 µM in assay [5].
For the compound `CN1CCN(c2ncc3ncnc(Nc4ccc(Oc5ccc6c(c5)ncn6C)c(Cl)c4)c3n2)CC1` [Example 143, N-(3-chloro-4-((1-methyl-1H-benzo[d]imidazol-5-yl)oxy)phenyl)-6-(4-methylpiperazin-1-yl)pyrimido[5,4-d]pyrimidin-4-amine 2,2,2-trifluoroacetate], the concentration for half-maximal inhibition (IC50) is 35.1 nM in assay [1] (Assay 1 IC50 (nM)); 50.7 nM in assay [2]; 7.41 µM in assay [3]; 28.2 nM in assay [4]; not below 5 µM in assay [5].
Take `C[C@@H]1COCCN1c1ncc2ncnc(Nc3ccc(Oc4ccc5c(c4)ncn5C)c(Cl)c3)c2n1` [Example 144, (R)—N-(3-chloro-4-((1-methyl-1H-benzo[d]imidazol-5-yl)oxy)phenyl)-6-(3-methylmorpholino)pyrimido[5,4-d]pyrimidin-4-amine]: the IC50 in assay [1] (read-out: Assay 1 IC50) was 59.5 nM; in assay [2] it was 78.2 nM; in assay [3] it was 6.91 µM; in assay [4], 38.1 nM; in assay [5], not below 5 µM.
As to `Cn1cnc2cc(Oc3ccc(Nc4ncnc5cnc(N6CC[C@H](C#N)C6)nc45)cc3Cl)ccc21` [Example 152, (S)-1-(8-((3-chloro-4-((1-methyl-1H-benzo[d]imidazol-5-yl)oxy)phenyl)amino)pyrimido[5,4-d]pyrimidin-2-yl)pyrrolidine-3-carbonitrile 2,2,2-trifluoroacetate], the IC50 in assay [1] (Assay 1 IC50 (nM)) is 36.7 nM; in assay [2], 78.7 nM; in assay [3], not below 10 µM; in assay [4], 31.9 nM; in assay [5], not below 5 µM.
Turning to `Cc1cc(Nc2ncnc3cnc(N4CCCO4)nc23)ccc1Oc1cc(F)c2c(c1)ncn2C` [Example 155, N-(4-((7-fluoro-1-methyl-1H-benzo[d]imidazol-5-yl)oxy)-3-methylphenyl)-6-(isoxazolidin-2-yl)pyrimido[5,4-d]pyrimidin-4-amine], the IC50 in assay [1] (read-out: Assay 1 IC50) was 22.5 nM; in assay [2], 52.9 nM; in assay [3], 4.28 µM; in assay [4], 5.5 nM; in assay [5], not below 5 µM.
`Cc1cc(Nc2ncnc3cnc(N4CC(O)(C(F)F)C4)nc23)ccc1Oc1ccc2c(c1)ncn2C` [Example 160, 3-(difluoromethyl)-1-(8-((3-methyl-4-((1-methyl-1H-benzo[d]imidazol-5-yl)oxy)phenyl)amino)pyrimido[5,4-d]pyrimidin-2-yl)azetidin-3-ol hydrochloride]: the concentration for half-maximal inhibition (IC50) is 20.3 nM in assay [1] (Assay 1 IC50 (nM)); 67.2 nM in assay [2]; 6.76 µM in assay [3]; 42.8 nM in assay [4]; not below 5 µM in assay [5].
Turning to `Cc1cc(Nc2ncnc3cnc(N(C)CC(O)C(F)(F)F)nc23)ccc1Oc1ccc2c(c1)ncn2C` (stereo not drawn) [Example 188, 1,1,1-trifluoro-3-(methyl(8-((3-methyl-4-((1-methyl-1H-benzo[d]imidazol-5-yl)oxy)phenyl)amino)pyrimido[5,4-d]pyrimidin-2-yl)amino)propan-2-ol], the IC50 in assay [1] (read-out: Assay 1 IC50) was 27.5 nM; in assay [2] it was 27.1 nM; in assay [3] it was not below 10 µM; in assay [4] it was 20.5 nM; in assay [5], not below 5 µM.
In the same order, the values of `Cc1cc(Nc2ncnc3cnc(N4CC[C@@H](CC#N)C4)nc23)ccc1Oc1ccc2c(c1)ncn2C` [Example 201, (S)-2-(1-(8-((3-methyl-4-((1-methyl-1H-benzo[d]imidazol-5-yl)oxy)phenyl)amino)pyrimido[5,4-d]pyrimidin-2-yl)pyrrolidin-3-yl)acetonitrile] are 27.7 nM, 88.8 nM, not below 10 µM, 9.9 nM and not below 5 µM.
Regarding `Cc1cc(Nc2ncnc3cnc(N(C)CC(C)(C)C#N)nc23)ccc1Oc1ccc2c(c1)ncn2C` [Example 205, 2,2-dimethyl-3-(methyl(8-((3-methyl-4-((1-methyl-1H-benzo[d]imidazol-5-yl)oxy)phenyl)amino)pyrimido[5,4-d]pyrimidin-2-yl)amino)propanenitrile], the IC50 in assay [1] (read-out: Assay 1 IC50) is 29.7 nM; in assay [2], 104 nM; in assay [3] it was not below 10 µM; in assay [4] it was 25.6 nM; in assay [5] it was not below 5 µM.
For `Cc1cc(Nc2ncnc3cnc(N4CCC(C)(O)CC4)nc23)c(F)cc1Oc1ccc2c(c1)ncn2C` [Example 215, 1-(8-((2-fluoro-5-methyl-4-((1-methyl-1H-benzo[d]imidazol-5-yl)oxy)phenyl)amino)pyrimido[5,4-d]pyrimidin-2-yl)-4-methylpiperidin-4-ol], in that order: 28.8 nM, 120 nM, not below 10 µM, 37.8 nM and not below 5 µM.
`CON(C)CCNc1ncc2ncnc(Nc3ccc(Oc4ccc5c(c4)ncn5C)c(C)c3)c2n1` [Example 219, N2-(2-(methoxy(methyl)amino)ethyl)-N8-(3-methyl-4-((1-methyl-1H-benzo[d]imidazol-5-yl)oxy)phenyl)pyrimido[5,4-d]pyrimidine-2,8-diamine]: the half-inhibitory concentration (IC50) is 14.8 nM in assay [1] (read-out: Assay 1 IC50); 27.6 nM in assay [2]; 2.11 µM in assay [3]; 6.2 nM in assay [4]; not below 5 µM in assay [5].
For `CON1CCC(Nc2ncc3ncnc(Nc4ccc(Oc5ccc6c(c5)ncn6C)c(C)c4)c3n2)C1` (stereo not drawn) [Example 220, N2-(1-methoxpyrrolidin-3-yl)-N8-(3-methyl-4-((1-methyl-1H-benzo[d]imidazol-5-yl)oxy)phenyl)pyrimido[5,4-d]pyrimidine-2,8-diamine], in that order: 9.3 nM, 12.1 nM, 1.52 µM, 8 nM and not below 5 µM.
For `Cc1cnc(-c2ncc3ncnc(Nc4ccc(Oc5ccc6c(c5)ncn6C)c(C)c4)c3n2)o1` [Example 231], in that order: 115 nM, 274 nM, not below 10 µM, 39.2 nM and not below 5 µM.
Take `CNc1ncc2ncnc(Nc3ccc(Oc4ccc5csnc5c4)c(C)c3)c2n1` [Example 241]: the 50% inhibitory concentration (IC50) in assay [1] (read-out: Assay 1 IC50) was 28.3 nM; in assay [2], 123 nM; in assay [3], 1.64 µM; in assay [4], 244 nM; in assay [5] it was not below 5 µM.
